Reference: PMC4910395 (Bioorganic & medicinal chemistry, 2015)
Counter-ions that a name gives are not always drawn. Like-named read-outs stand apart in the source and are kept apart here.

Experiments:
[1] = biological target: T1, NMDA receptor (NR), [^3H]ifenprodil binding site (Rattus norvegicus, UniProt P35439+Q00960); conditions: pH 7.4
[2] = biological target: NMDA receptor (NR), channel binding site labeled with [^3H]MK-801 (Rattus norvegicus, UniProt P35439+Q00959+Q00960); assay: Inhibition of [^3H]MK-801 binding to rat cortical membranes; conditions: for [^3H]MK-801 Ratio IC50 (30 µM spm)/IC50 (no spm): mean ratio, spermine sensitivity; for IC50: in presence of 30 µM spermine
Sequence of NMDA receptor (NR), channel binding site labeled with [^3H]MK-801 (Q00959 23-1464, other chains not shown): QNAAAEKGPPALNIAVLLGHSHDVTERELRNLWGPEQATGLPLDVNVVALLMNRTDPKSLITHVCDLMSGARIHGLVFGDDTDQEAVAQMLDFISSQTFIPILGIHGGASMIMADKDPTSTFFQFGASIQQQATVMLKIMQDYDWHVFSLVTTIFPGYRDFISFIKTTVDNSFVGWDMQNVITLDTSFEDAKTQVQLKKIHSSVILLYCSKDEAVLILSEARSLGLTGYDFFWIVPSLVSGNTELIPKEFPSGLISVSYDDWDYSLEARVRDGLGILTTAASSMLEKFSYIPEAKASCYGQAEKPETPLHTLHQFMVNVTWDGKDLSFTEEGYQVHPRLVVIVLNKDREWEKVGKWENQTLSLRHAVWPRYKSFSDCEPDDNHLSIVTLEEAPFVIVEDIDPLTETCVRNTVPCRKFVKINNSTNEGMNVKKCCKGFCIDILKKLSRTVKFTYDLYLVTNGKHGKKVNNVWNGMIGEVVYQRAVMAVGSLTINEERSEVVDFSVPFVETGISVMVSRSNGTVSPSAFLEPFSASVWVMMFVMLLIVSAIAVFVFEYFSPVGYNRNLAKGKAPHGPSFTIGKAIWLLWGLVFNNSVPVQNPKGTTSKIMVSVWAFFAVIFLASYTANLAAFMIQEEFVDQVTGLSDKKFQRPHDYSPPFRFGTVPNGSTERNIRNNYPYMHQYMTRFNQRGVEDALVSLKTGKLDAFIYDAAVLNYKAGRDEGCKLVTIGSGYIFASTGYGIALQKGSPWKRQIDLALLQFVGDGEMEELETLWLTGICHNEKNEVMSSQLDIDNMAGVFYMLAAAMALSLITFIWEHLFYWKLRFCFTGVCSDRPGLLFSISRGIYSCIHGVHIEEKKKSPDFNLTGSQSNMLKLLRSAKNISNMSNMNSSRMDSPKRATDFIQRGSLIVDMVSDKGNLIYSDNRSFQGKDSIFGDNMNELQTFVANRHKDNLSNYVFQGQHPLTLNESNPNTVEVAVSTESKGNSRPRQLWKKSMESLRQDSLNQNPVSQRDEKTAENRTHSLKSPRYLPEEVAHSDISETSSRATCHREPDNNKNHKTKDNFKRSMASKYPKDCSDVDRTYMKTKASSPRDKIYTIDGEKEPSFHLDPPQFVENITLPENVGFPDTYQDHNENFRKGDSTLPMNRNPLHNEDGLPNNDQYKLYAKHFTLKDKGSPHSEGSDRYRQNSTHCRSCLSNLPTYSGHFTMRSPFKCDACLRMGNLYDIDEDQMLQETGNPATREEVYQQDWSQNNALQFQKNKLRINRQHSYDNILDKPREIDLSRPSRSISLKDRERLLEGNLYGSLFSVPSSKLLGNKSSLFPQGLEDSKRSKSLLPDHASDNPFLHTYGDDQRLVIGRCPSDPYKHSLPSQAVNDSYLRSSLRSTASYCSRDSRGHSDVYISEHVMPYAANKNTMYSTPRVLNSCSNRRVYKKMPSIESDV
Sequence of NMDA receptor (NR), channel binding site labeled with [^3H]MK-801 (Q00960 27-1482, other chains not shown): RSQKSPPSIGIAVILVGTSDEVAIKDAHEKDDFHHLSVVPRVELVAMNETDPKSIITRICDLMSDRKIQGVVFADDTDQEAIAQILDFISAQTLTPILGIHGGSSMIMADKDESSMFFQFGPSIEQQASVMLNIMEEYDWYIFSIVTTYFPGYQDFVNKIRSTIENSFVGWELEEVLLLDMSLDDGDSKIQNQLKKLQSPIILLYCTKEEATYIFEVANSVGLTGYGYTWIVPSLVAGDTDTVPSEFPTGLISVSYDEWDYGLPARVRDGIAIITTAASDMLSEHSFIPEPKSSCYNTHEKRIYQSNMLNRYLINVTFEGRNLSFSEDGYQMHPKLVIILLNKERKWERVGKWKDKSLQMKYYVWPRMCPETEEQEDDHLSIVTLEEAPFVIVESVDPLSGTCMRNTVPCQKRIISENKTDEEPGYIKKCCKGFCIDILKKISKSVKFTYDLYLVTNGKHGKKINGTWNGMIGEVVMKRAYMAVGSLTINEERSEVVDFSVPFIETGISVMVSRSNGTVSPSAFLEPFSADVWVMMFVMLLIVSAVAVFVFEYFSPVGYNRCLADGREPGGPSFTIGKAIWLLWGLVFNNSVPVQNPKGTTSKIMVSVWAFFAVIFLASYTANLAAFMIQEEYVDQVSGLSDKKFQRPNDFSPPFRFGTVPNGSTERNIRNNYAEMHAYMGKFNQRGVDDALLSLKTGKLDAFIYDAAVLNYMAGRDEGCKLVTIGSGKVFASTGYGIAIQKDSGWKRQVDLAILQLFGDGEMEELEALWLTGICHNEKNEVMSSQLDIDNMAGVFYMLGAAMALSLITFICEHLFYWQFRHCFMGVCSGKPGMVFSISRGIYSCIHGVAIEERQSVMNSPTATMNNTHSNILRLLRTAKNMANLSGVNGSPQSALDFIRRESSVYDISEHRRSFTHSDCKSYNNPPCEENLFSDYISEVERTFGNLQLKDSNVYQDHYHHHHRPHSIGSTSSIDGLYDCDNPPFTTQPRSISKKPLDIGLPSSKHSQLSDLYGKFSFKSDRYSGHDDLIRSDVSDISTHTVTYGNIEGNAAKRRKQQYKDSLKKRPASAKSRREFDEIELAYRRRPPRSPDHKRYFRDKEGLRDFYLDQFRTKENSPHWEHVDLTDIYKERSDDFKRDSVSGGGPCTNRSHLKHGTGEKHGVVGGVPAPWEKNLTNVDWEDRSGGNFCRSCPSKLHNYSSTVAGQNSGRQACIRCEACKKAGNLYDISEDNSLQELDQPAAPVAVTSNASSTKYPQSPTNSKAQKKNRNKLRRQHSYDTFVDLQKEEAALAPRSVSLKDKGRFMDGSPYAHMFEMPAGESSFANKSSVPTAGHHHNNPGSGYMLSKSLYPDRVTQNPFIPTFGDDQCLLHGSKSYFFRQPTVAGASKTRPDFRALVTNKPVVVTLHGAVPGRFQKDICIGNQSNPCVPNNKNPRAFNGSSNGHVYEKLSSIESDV

[3] = biological target: T1, NMDA receptor (NR), [^3H]ifenprodil binding site; assay: biochemical
[4] = biological target: NMDA receptor, [^3H]MK-801 binding; conditions: read-out: IC50, inhibition of [^3H]MK-801 binding to rat brain membranes; 5, 4 and 3 methylene groups between the oxygens; cited from earlier work
[5] = tested on: NRs in native membranes; conditions: native membranes from rat frontoparietal cortex and hippocampus; cited from earlier work
[6] = read-out: [^3H]MK-801 IC50 ± SD (n), 30 µM spm
[7] = [^3H]MK-801 IC50 ± SD (n), 30 µM spm

T1 sequence (Q00960 27-1482, other chains not shown): as above

Row | Compound | [^3H]MK-801 Ratio IC50 (30 µM spm)/IC50 (no spm) [2] | other results
1 | 1,5-Bis(1-amidino-3-methoxyphenylamino)pentane dihydrochloride [compound 9] | – | IC50 [1]: 4.54 µM
2 | 1,5-Bis[(1-amidinophenyl)N-methylamino]-3-oxapentane [compound 11] | 15.2 ± 2.2 (3) | IC50 [2, 6]: 12.5 ± 1.8 µM; IC50 [1]: 21.9 ± 5.2 µM
3 | N=C(N)NCCCCNC(=N)N [Arcaine, reference compound] | 33.6 (2) | –
4 | N=C(N)c1ccc(OCCCCCOc2ccc(C(=N)N)cc2)cc1 [compound 1, Pentamidine, reference compound] | 9.1 ± 2.5 (7) | IC50 [3]: 32.5 µM; IC50 [4]: 2.59 µM; IC50 [2, 7]: 24.9 ± 5.7 µM
5 | N=C(N)c1ccc(SCCOCCSc2ccc(C(=N)N)cc2)cc1 [compound 5] | 20.2 ± 6.1 (3) | IC50 [2, 7]: 23.8 ± 2.7 µM
6 | N=C(N)c1ccc(N2CCN(c3ccc(C(=N)N)cc3)CC2)cc1 [compound 16] | 26.2 (2) | –
7 | N=C(NC1CC1)c1ccc(N2CCN(c3ccc(C(=N)NC4CC4)cc3)CC2)cc1 [compound 18] | 21.8 (2) | –
8 | CCCNC(=N)c1ccc(N2CCN(c3ccc(C(=N)NCCC)cc3)CC2)cc1 [compound 19] | 21.8 (2) | –
9 | CC(C)(C)/N=C(\N)c1ccc(N2CCCN(c3ccc(/C(N)=N/C(C)(C)C)cc3)CC2)cc1 [compound 27] | 16.8 (2) | –
10 | N=C(NCCCO)c1ccc(N2CCCN(c3ccc(/C(N)=N/CCCO)cc3)CC2)cc1 [compound 31] | 9.72 (2) | –
11 | c1cc(N2CCCN(c3ccc(C4=NCCN4)cc3)CC2)ccc1C1=NCCN1 [compound 32] | 30.1 (2) | –
12 | CN(CCNc1ccc(C(=N)N)cc1)c1ccc(C(=N)N)cc1 [compound 35] | 30.2 (2) | –
13 | CN(CCN(C)c1ccc(C(=N)N)cc1)c1ccc(C(=N)N)cc1 [compound 37] | 20.9 (2) | –
14 | CCN(CCN(CC)c1ccc(C(=N)N)cc1)c1ccc(C(=N)N)cc1 [compound 38] | 11.8 (2) | –
15 | N=C(N)c1ccc(NCCCNc2ccc(C(=N)N)cc2)cc1 [compound 39] | 17.0 (2) | –
16 | N=C(N)c1ccc(NCCCCNc2ccc(C(=N)N)cc2)cc1 [compound 41] | 17.2 (2) | –
17 | N=C(N)c1ccc(NCCCCCCNc2ccc(C(=N)N)cc2)cc1 [compound 42] | 5.26 (2) | –
18 | N=C(N)c1ccc(NCCCCCCCNc2ccc(C(=N)N)cc2)cc1 [compound 43, 1,7-Bis[(1-amidinophenyl)amino]heptane dihydrochloride] | 5.37 (2) | –
19 | N=C(N)c1ccc(NCCCCCCCCNc2ccc(C(=N)N)cc2)cc1 [compound 44] | 4.37 (2) | –
20 | N=C(N)c1ccc(NC(=O)CCCC(=O)Nc2ccc(C(=N)N)cc2)cc1 [compound 45] | – | IC50 [3]: 65.6 µM; Fold weaker than pentamidine ([2]; no spermine): 100 fold
21 | N=C(N)c1ccc(OCc2ccccc2COc2ccc(C(=N)N)cc2)cc1 [compound 57] | – | IC50 [3]: 2.05 µM
22 | N=C(N)c1ccc(OCc2ccc(COc3ccc(C(=N)N)cc3)cc2)cc1 [compound 59] | – | IC50 [3]: 16.8 µM
23 | N=C(N)c1ccc(OC(=O)c2ccc(C(=O)Oc3ccc(C(=N)N)cc3)cc2)cc1 [compound 60] | 3.98 (2) | IC50 [3]: 38.6 µM
24 | CC(C(O)c1ccc(O)cc1)N1CCC(Cc2ccccc2)CC1 (stereo not drawn) [ifenprodil] | – | Share of NRs blocked with high affinity [5]: 23%
25 | N,N-Bis[2-(1-amidino-3-methoxyphenoxy)ethyl]-4-methylbenzenesulfonamide dihydrochloride [compound 15] | – | IC50 [2, 6]: 28.7 ± 4.4 µM; IC50 [1]: 0.84 µM

Continued, in another order:

Row | [^3H]MK-801 Ratio IC50 (30 µM spm)/IC50 (no spm) [2] | Compound | other results
26 | 3.46 (2) | N=C(N)c1ccc(NC(=O)CCCCC(=O)Nc2ccc(C(=N)N)cc2)cc1 [compound 46] | –
27 | 4.59 (2) | N=C(N)c1ccc(C(=O)NCCCCCCNC(=O)c2ccc(C(=N)N)cc2)cc1 [compound 55] | –
28 | 0.97 (2) | N=C(N)c1ccc(NC(=O)c2cccc(C(=O)Nc3ccc(C(=N)N)cc3)c2)cc1 [compound 61] | –
29 | 0.96 (2) | N=C(N)c1ccc(NC(=O)c2ccc(C(=O)Nc3ccc(C(=N)N)cc3)cc2)cc1 [compound 62] | –
30 | 1.22 (2) | N=C(N)c1ccc(NC(=O)c2cccc(C(=O)Nc3ccc(C(=N)N)cc3)n2)cc1 [compound 65] | –
31 | 1.85 (2) | N=C(N)c1ccc(C(=O)Nc2cccc(NC(=O)c3ccc(C(=N)N)cc3)n2)cc1 [compound 67] | –
32 | 2.56 (2) | CC/N=C(\N)c1ccc(-c2ccc(-c3ccc(/C(N)=N/CC)cc3)o2)cc1 [compound 70] | –
33 | 1.50 (2) | N=C(N)c1ccc(-c2ccc(-c3ccc(C(=N)N)s3)s2)s1 [compound 71, 5,5″-Diamidino-2,2′:5′,2″-terthiophene dihydrochloride] | –
34 | 4.63 (2) | N=C(N)c1ccc(-c2ccc(-c3ccc(C(=N)N)cc3)c(F)c2)cc1 [compound 73] | –
35 | 4.14 (2) | N=C(N)c1ccc(-c2ccc(-c3nc4ccc(C(=N)N)cc4[nH]3)s2)cc1 [compound 74] | –
36 | 4.26 (2) | N=C(N)c1ccc(-c2ccc(-c3ccc(-c4ccc(C(=N)N)o4)s3)s2)o1 [compound 75] | –
